# Measured values published in PubChem BioAssay AID2060509 (Molecular Pharmacology Branch, DTP, NCI, 2025).
# Test system: 485176-168-R4-J1-PDC spheroids with HUVEC/MSC, viability
# Experiment: Anticancer human tumor 485176-168-R4-J1-PDC patient-derived pancreatic adenocarcinoma cell line growth inhibition [GQUAD]
# Details: for IC50: curve of first compound; for viability, T/C: stronger effect = lower value
# Method in brief: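 Viability of tumor cells grown as complex spheroids with endothelial and stromal cells, exposed to drug combinations. Top concentration at or near clinical Cmax (else 10 microM), diluted in half-log increments.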
# [1] = second compound 0.0316 µM, first compound 0.0316 µM
# [2] = second compound 0.0316 µM, first compound 0.1 µM
# [3] = second compound 0.0316 µM, first compound 0.316 µM
# [4] = second compound 0.0316 µM, first compound 1 µM
# [5] = second compound 0.0316 µM, first compound 3.16 µM
# [6] = second compound 0.0316 µM, first compound 10 µM
# [7] = second compound 0.1 µM, first compound 0.0316 µM
# [8] = second compound 0.1 µM, first compound 0.1 µM
# [9] = second compound 0.1 µM, first compound 0.316 µM
# [10] = second compound 0.1 µM, first compound 1 µM
# [11] = second compound 0.1 µM, first compound 3.16 µM
# [12] = second compound 0.1 µM, first compound 10 µM
# [13] = second compound 0.316 µM, first compound 0.0316 µM
# [14] = second compound 0.316 µM, first compound 0.1 µM
# [15] = second compound 0.316 µM, first compound 0.316 µM
# [16] = second compound 0.316 µM, first compound 1 µM
# [17] = second compound 0.316 µM, first compound 3.16 µM
# [18] = second compound 0.316 µM, first compound 10 µM
# [19] = second compound 1 µM, first compound 0.0316 µM
# [20] = second compound 1 µM, first compound 0.1 µM
# [21] = second compound 1 µM, first compound 0.316 µM
# [22] = second compound 1 µM, first compound 1 µM
# [23] = second compound 1 µM, first compound 3.16 µM
# [24] = second compound 1 µM, first compound 10 µM
# [25] = second compound 3.16 µM, first compound 0.0316 µM
# [26] = second compound 3.16 µM, first compound 0.1 µM
# [27] = second compound 3.16 µM, first compound 0.316 µM
# [28] = second compound 3.16 µM, first compound 1 µM
# [29] = second compound 3.16 µM, first compound 3.16 µM
# [30] = second compound 3.16 µM, first compound 10 µM
# [31] = second compound 10 µM, first compound 0.0316 µM
# [32] = second compound 10 µM, first compound 0.1 µM
# [33] = second compound 10 µM, first compound 0.316 µM
# [34] = second compound 10 µM, first compound 1 µM
# [35] = second compound 10 µM, first compound 3.16 µM
# [36] = second compound 10 µM, first compound 10 µM
# 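Further: spheroids exposed to compounds for seven days before readout.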
# 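Wherever viability, T/C is given: percent viability relative to DMSO vehicle control wells as 100%.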
structure (smiles),measurement,setting,value
CC(C)(O)C1CCC(Nc2ccc3ncc(-c4cccc(C(F)(F)F)c4)n3n2)CC1 (centres undefined) + CN(C)c1ccc(Nc2c3ccc(NC(=O)CCN4CCCC4)cc3nc3cc(NC(=O)CCN4CCCC4)ccc23)cc1,IC50,second compound 0.0316 µM,> 10 µM
same,IC50,second compound 0.1 µM,> 10 µM
same,IC50,second compound 0.316 µM,> 10 µM
same,IC50,second compound 1 µM,6.25 µM
same,IC50,second compound 3.16 µM,2.74 µM
same,IC50,second compound 10 µM,1.5 µM
same,"viability, T/C",[1],101%
same,"viability, T/C",[2],104%
same,"viability, T/C",[3],86.1%
same,"viability, T/C",[4],78.8%
same,"viability, T/C",[5],56.7%
same,"viability, T/C",[6],51.1%
same,"viability, T/C",[7],83.8%
same,"viability, T/C",[8],89.5%
same,"viability, T/C",[9],88.7%
same,"viability, T/C",[10],77.7%
same,"viability, T/C",[11],64.5%
same,"viability, T/C",[12],51%
same,"viability, T/C",[13],104%
same,"viability, T/C",[14],84.6%
same,"viability, T/C",[15],100%
same,"viability, T/C",[16],97.9%
same,"viability, T/C",[17],56.2%
same,"viability, T/C",[18],59.1%
same,"viability, T/C",[19],111%
same,"viability, T/C",[20],104%
same,"viability, T/C",[21],82.2%
same,"viability, T/C",[22],91.4%
same,"viability, T/C",[23],56.6%
same,"viability, T/C",[24],42.1%
same,"viability, T/C",[25],88.1%
same,"viability, T/C",[26],81.1%
same,"viability, T/C",[27],92.1%
same,"viability, T/C",[28],97.7%
same,"viability, T/C",[29],44.4%
same,"viability, T/C",[30],37.3%
same,"viability, T/C",[31],89%
same,"viability, T/C",[32],85.7%
same,"viability, T/C",[33],72.6%
same,"viability, T/C",[34],65.9%
same,"viability, T/C",[35],25.4%
same,"viability, T/C",[36],16.4%
C=CC(=O)N1CCN(c2nc(=O)n(-c3c(C)ccnc3C(C)C)c3nc(-c4c(O)cccc4F)c(F)cc23)C(C)C1 (centres undefined) + CN(C)c1ccc(Nc2c3ccc(NC(=O)CCN4CCCC4)cc3nc3cc(NC(=O)CCN4CCCC4)ccc23)cc1,IC50,second compound 0.0316 µM,> 10 µM
same,IC50,second compound 0.1 µM,> 10 µM
same,IC50,second compound 0.316 µM,> 10 µM
same,IC50,second compound 1 µM,> 10 µM
same,IC50,second compound 3.16 µM,> 10 µM
same,IC50,second compound 10 µM,> 10 µM
same,"viability, T/C",[1],111%
same,"viability, T/C",[2],90.2%
same,"viability, T/C",[3],102%
same,"viability, T/C",[4],98.1%
same,"viability, T/C",[5],120%
same,"viability, T/C",[6],112%
same,"viability, T/C",[7],88.5%
same,"viability, T/C",[8],98.3%
same,"viability, T/C",[9],110%
same,"viability, T/C",[10],99.5%
same,"viability, T/C",[11],114%
same,"viability, T/C",[12],96.6%
same,"viability, T/C",[13],90.5%
same,"viability, T/C",[14],95.7%
same,"viability, T/C",[15],96.2%
same,"viability, T/C",[16],101%
same,"viability, T/C",[17],119%
same,"viability, T/C",[18],120%
same,"viability, T/C",[19],128%
same,"viability, T/C",[20],110%
same,"viability, T/C",[21],94.8%
same,"viability, T/C",[22],108%
same,"viability, T/C",[23],125%
same,"viability, T/C",[24],98.6%
same,"viability, T/C",[25],108%
same,"viability, T/C",[26],95.6%
same,"viability, T/C",[27],90.5%
same,"viability, T/C",[28],107%
same,"viability, T/C",[29],114%
same,"viability, T/C",[30],108%
same,"viability, T/C",[31],86.2%
same,"viability, T/C",[32],104%
same,"viability, T/C",[33],86.6%
same,"viability, T/C",[34],91.1%
same,"viability, T/C",[35],88.2%
same,"viability, T/C",[36],73.1%
